Measurements: patent publication US8182842B1, “Physico-chemical-managed killing of penicillin-resistant static and growing gram-positive and gram-negative vegetative bacteria” (The United States of America as represented by the …, priority 2010, dated 2012)
Entries after “also recorded” stand apart in the source; their conditions may differ.

Key:
[1] = test system: methicillin-resistant Staphylococcus aureus (MRSA); assay: kill curve time course of MRSA suspensions (CFU survival); format: cell-based
Method: FIGS. 1 through 17 illustrate kill curve time course experiments of stationary and logarithmic-phase MRSA bacterial suspensions exposed to PBS as well as denaturing SS at pH […] or pH 7.4 in the presence of cloxacillin concentrations spanning from 512 μg/ml to 4096 μg/ml. Experiments were conducted at 22° C. or 35° C. The completion time for the experiments ranged from 20 minutes to 24 hours.
For these experiments, the MRSA strain was grown overnight in Mueller-Hinton broth (MH)+2% NaCl at 35° C., subcultured into fresh media, and grown to mid-logarithmic phase. The cells were centrifuged and resuspended in pH 7.4 MH+2% NaCl to produce an OD600 nm known to indicate logarithmic-phase or stationary-phase of growth. An appropriate volume of cells was added to 1 ml of buffered SS in a 10 ml Falcon tube to yield a final concentration of ca. 1×10^8 colony forming units (CFU)/ml, except for the experiments of FIGS. 1-4 where the final concentration of ca. 1×10^6 CFU/ml applies. Survival was determined for bacteria held for varied exposure times of up to 24 hours in the SS or in PBS at pH 5.6 or pH 7.4, each altered with cloxacillin concentrations ranging in doublings from 512 μg/ml to 4096 μg/ml. Survival was measured from samples held at 22° C. and 35° C. After exposure, samples of 50 μl were then withdrawn and a serial dilution series established. Cells were then plated on MH+2% NaCl agar plates and incubated at 22° C. or 35° C. for CFU formation, after which colonies were counted, surviving fractions recorded, and survival curves constructed. Triplicate experiments were conducted for each exposure condition. The cells were treated under static conditions in all cases and treatments were always made on cells held in salt solutions, never on cells held in growth media. In addition to logarithmic-phase cells, stationary-phase cells removed from growth cycle were also treated.
Killing efficiency is evaluated as therapeutically sufficient according to the 10^−5 level of killing in 5 minutes specified by the British Standard BS EN 1276:1997 Chemical Disinfectants and Antiseptics, which is referred to as the gold standard for efficacy of bactericidal agents. Typically, agents meeting the British Standard are too toxic for human topical application. However, this is not a restriction for effective SS containing cloxacillin used in the illustrated embodiment.

Pseudomonas aeruginosa = assay: kill curve time course of Pseudomonas aeruginosa suspensions (CFU survival); format: cell-based; settings: for killing: 20 minutes
Method: FIGS. 18 through 41 illustrate kill curve time-course experiments of stationary-phase and logarithmic-phase Pseudomonas aeruginosa bacterial suspensions exposed to PBS, to SS, to PBS in the presence of cloxacillin concentrations spanning from 512 μg/ml to 4096 μg/ml, or to SS in the presence of cloxacillin concentrations spanning from 512 μg/ml to 4096 μg/ml. Experiments were conducted at 22° C. or 35° C. over the course of 10, 20, or 60 minutes.
Pseudomonas aeruginosa cells were prepared as described above for MRSA with a few exceptions. The Pseudomonas aeruginosa cells were first grown in trypticase soy broth and then frozen in aliquots, which were later rescued into MH broth+2% NaCl for use as in the MRSA experiments. An appropriate volume of cells was added to 1 ml of comparative salt solutions in a 10 ml Falcon tube to yield a final concentration of ca. 1×10^8 colony forming units (CFU)/ml. Survival was determined for bacteria held for varied exposure times of up to 60 minutes in PBS, in SS, in PBS altered with cloxacillin concentrations ranging in doublings from 512 μg/ml to 4096 μg/ml, or in SS containing cloxacillin concentrations ranging in doublings from 512 μg/ml to 4096 μg/ml. The salt solutions were compared at a pH of 5.6 or 7.4. Survival was measured from samples held at 22° C. or 35° C. After exposure, samples of 50 μl were then withdrawn and a serial dilution series established. Cells were then plated on MH+2% NaCl agar plates and incubated at 22° C. or 35° C. for CFU formation, after which colonies were counted, surviving fractions recorded, and survival curves constructed. Triplicate experiments were conducted for each exposure condition. The cells were treated under static conditions in all cases and treatments were always made on cells held in salt solutions, never on cells held in growth media. In addition to logarithmic-phase cells, stationary-phase cells removed from growth cycle were also treated.

**Q.** What does the source list for `Cc1onc(-c2ccccc2Cl)c1C(=O)N[C@@H]1C(=O)N2[C@@H]1SC(C)(C)[C@@H]2C(=O)O` [cloxacillin]?
**A.** killing effect ([1]; FIG. 1, pH 5.5 PBS, 1024 μg/ml cloxacillin, 22° C., logarithmic-phase MRSA, 20 minute): non-substantial killing effect; also recorded: not effective; killing effect ([1]; FIG. 2, pH 7.4 PBS, 512 μg/ml cloxacillin, 22° C., logarithmic-phase MRSA, 20 minute): non-substantial killing effect; also recorded: not effective; killing effect ([1]; FIG. 3, pH 5.5 SS, 1024 μg/ml cloxacillin, 22° C., logarithmic-phase MRSA, 20 minute): not effective; also recorded: non-substantial killing effect; killing effect ([1]; FIG. 4, pH 7.4 SS, 512 μg/ml cloxacillin, 22° C., logarithmic-phase MRSA, 60 minute): substantial killing; also recorded: killing effect; surviving fraction ([1]; FIG. 4, pH 7.4 SS, 512 μg/ml cloxacillin, 22° C., logarithmic-phase MRSA, all time points, no survivors on treated plates): < 2×10^−4; killing effect ([1]; FIG. 5, pH 7.4 SS, 512 μg/ml cloxacillin, 22° C., stationary-phase MRSA, 60 minute): killing effect; killing effect ([1]; FIG. 6, pH 7.4 SS, 1024 μg/ml cloxacillin, 22° C., stationary-phase MRSA, 60 minute): killing effect; killing effect ([1]; FIG. 7, pH 7.4 SS, 2048 μg/ml cloxacillin, 22° C., stationary-phase MRSA, 60 minute): killing effect; killing effect ([1]; FIG. 8, pH 7.4 SS, 4096 μg/ml cloxacillin, 22° C., stationary-phase MRSA, 60 minute): killing effect; time in which the 10^−5 level of killing is achieved ([1]; FIG. 9, pH 7.4 SS, 4096 μg/ml cloxacillin, 22° C., stationary-phase MRSA): 3 hours; killing effect ([1]; FIG. 9, pH 7.4 SS, 4096 μg/ml cloxacillin, 22° C., stationary-phase MRSA, 24 hour): killing effect; killing effect ([1]; FIG. 10, pH 7.4 SS, 512 μg/ml cloxacillin, 35° C., logarithmic-phase MRSA, 20 minute): killing effect; killing effect ([1]; FIG. 11, pH 7.4 SS, 1024 μg/ml cloxacillin, 35° C., logarithmic-phase MRSA, 20 minute): killing effect; killing effect ([1]; FIG. 12, pH 7.4 SS, 2048 μg/ml cloxacillin, 35° C., logarithmic-phase MRSA, 20 minute): killing effect; killing effect ([1]; FIG. 13, pH 7.4 SS, 4096 μg/ml cloxacillin, 35° C., logarithmic-phase MRSA, 20 minute): killing effect; killing effect ([1]; FIG. 14, pH 7.4 SS, 512 μg/ml cloxacillin, 35° C., stationary-phase MRSA, 60 minute): killing effect; killing effect ([1]; FIG. 15, pH 7.4 SS, 1024 μg/ml cloxacillin, 35° C., stationary-phase MRSA, 60 minute): killing effect; killing effect ([1]; FIG. 16, pH 7.4 SS, 2048 μg/ml cloxacillin, 35° C., stationary-phase MRSA, 60 minute): killing effect; killing effect ([1]; FIG. 17, pH 7.4 SS, 4096 μg/ml cloxacillin, 35° C., stationary-phase MRSA, 60 minute): killing effect; efficiency of killing versus British Standard BS EN 1276:1997 (10^−5 level of killing in 5 minutes) ([1]; FIGS. 5-9, pH 7.4 SS, 512 to 4096 μg/ml cloxacillin, 22° C., stationary-phase MRSA): does not provide the 10^−5 level of killing in 5 minutes; killing compared with 22° C. ([1]; FIGS. 10-13, pH 7.4 SS, 512 to 4096 μg/ml cloxacillin, 35° C., logarithmic-phase MRSA): killing is enhanced; killing compared with 22° C. ([1]; FIGS. 14-17, pH 7.4 SS, 512 to 4096 μg/ml cloxacillin, 35° C., stationary-phase MRSA): enhanced killing; efficiency of killing versus British Standard BS EN 1276:1997 (10^−5 level of killing in 5 minutes) ([1]; pH 7.4 SS with cloxacillin, 35° C., logarithmic-phase MRSA): approaches or exceeds the 10^−5 level of killing in 5 minutes; efficiency of killing versus British Standard BS EN 1276:1997 (10^−5 level of killing in 5 minutes) ([1]; pH 7.4 SS with cloxacillin, 35° C., stationary-phase MRSA): approaches or exceeds the 10^−5 level of killing in 5 minutes; killing effect (Pseudomonas aeruginosa; FIG. 22, pH 7.4 PBS, 512 μg/ml cloxacillin, 22° C., logarithmic-phase, 20 minute): non-substantial killing effect; killing effect (Pseudomonas aeruginosa; FIG. 23, pH 7.4 PBS, 1024 μg/ml cloxacillin, 22° C., logarithmic-phase, 20 minute): non-substantial killing effect; killing effect (Pseudomonas aeruginosa; FIG. 24, pH 7.4 PBS, 2048 μg/ml cloxacillin, 22° C., logarithmic-phase, 20 minute): non-substantial killing effect; killing effect (Pseudomonas aeruginosa; FIG. 25, pH 7.4 PBS, 4096 μg/ml cloxacillin, 22° C., logarithmic-phase, 20 minute): non-substantial killing effect; killing effect (Pseudomonas aeruginosa; FIG. 26, pH 7.4 SS, 512 μg/ml cloxacillin, 22° C., logarithmic-phase, 20 minute): killing effect; killing effect (Pseudomonas aeruginosa; FIG. 27, pH 7.4 SS, 1024 μg/ml cloxacillin, 22° C., logarithmic-phase, 20 minute): killing effect; killing effect (Pseudomonas aeruginosa; FIG. 28, pH 7.4 SS, 2048 μg/ml cloxacillin, 22° C., logarithmic-phase, 10 minute): killing effect; killing effect (Pseudomonas aeruginosa; FIG. 29, pH 7.4 SS, 4096 μg/ml cloxacillin, 22° C., logarithmic-phase, 10 minute): killing effect; killing effect (Pseudomonas aeruginosa; FIG. 30, pH 7.4 PBS, 512 μg/ml cloxacillin, 35° C., logarithmic-phase, 20 minute): non-substantial killing effect; killing effect (Pseudomonas aeruginosa; FIG. 31, pH 7.4 PBS, 1024 μg/ml cloxacillin, 35° C., logarithmic-phase, 20 minute): non-substantial killing effect; killing effect (Pseudomonas aeruginosa; FIG. 32, pH 7.4 PBS, 2048 μg/ml cloxacillin, 35° C., logarithmic-phase, 20 minute): non-substantial killing effect; killing effect (Pseudomonas aeruginosa; FIG. 33, pH 7.4 PBS, 4096 μg/ml cloxacillin, 35° C., logarithmic-phase, 20 minute): non-substantial killing effect; killing effect (Pseudomonas aeruginosa; FIG. 34, pH 7.4 SS, 512 μg/ml cloxacillin, 35° C., logarithmic-phase, 20 minute): killing effect; killing effect (Pseudomonas aeruginosa; FIG. 35, pH 7.4 SS, 1024 μg/ml cloxacillin, 35° C., logarithmic-phase, 20 minute): killing effect; killing effect (Pseudomonas aeruginosa; FIG. 36, pH 7.4 SS, 2048 μg/ml cloxacillin, 35° C., logarithmic-phase, 20 minute): killing effect; killing effect (Pseudomonas aeruginosa; FIG. 37, pH 7.4 SS, 4096 μg/ml cloxacillin, 35° C., logarithmic-phase, 20 minute): killing effect; killing effect (Pseudomonas aeruginosa; FIG. 38, pH 7.4 SS, 512 μg/ml cloxacillin, 22° C., stationary-phase, 20 minute): killing effect; killing effect (Pseudomonas aeruginosa; FIG. 39, pH 7.4 SS, 1024 μg/ml cloxacillin, 22° C., stationary-phase, 20 minute): killing effect; killing effect (Pseudomonas aeruginosa; FIG. 40, pH 7.4 SS, 2048 μg/ml cloxacillin, 22° C., stationary-phase, 20 minute): killing effect; killing effect (Pseudomonas aeruginosa; FIG. 41, pH 7.4 SS, 4096 μg/ml cloxacillin, 22° C., stationary-phase, 20 minute): killing effect; killing (Pseudomonas aeruginosa; FIGS. 22-25, PBS pH 7.4, 512 to 4096 μg/ml cloxacillin, 22° C., logarithmic-phase): non-substantial killing; efficiency of killing (Pseudomonas aeruginosa; FIGS. 26-29, SS pH 7.4, all concentrations 512 to 4096 μg/ml cloxacillin, 22° C., logarithmic-phase, 10 or 20 minutes): substantially efficient in killing; killing (Pseudomonas aeruginosa; FIGS. 30-33, PBS pH 7.4, 512 to 4096 μg/ml cloxacillin, 35° C., logarithmic-phase): non-substantial killing; killing (Pseudomonas aeruginosa; FIGS. 34-37, SS pH 7.4, 512 to 4096 μg/ml cloxacillin, 35° C., logarithmic-phase): substantial killing; killing (Pseudomonas aeruginosa; FIGS. 38-41, SS pH 7.4, 512 to 4096 μg/ml cloxacillin, 22° C., stationary-phase): substantial killing
